For data set [1], the target named is ATP-dependent translocase ABCB1 (Homo sapiens, UniProt P08183). As to the kind of experiment: TP_TRANSPORTER: transepithelial transport (basal to apical) in MDR1-expressing LLC-PK1 cells. Conditions: pig. It is filed as functional, cell-based.
For data set [2], the target named is ATP-dependent translocase ABCB1 (Mus musculus, UniProt P21447). As to the kind of experiment: TP_TRANSPORTER: decrease in intestinal clearance in mdr1a(-/-) mouse. It is filed as functional, tissue-based, Intestine.
ATP-dependent translocase ABCB1 (Mus musculus, UniProt P21447), sequence (P21447 whole entry): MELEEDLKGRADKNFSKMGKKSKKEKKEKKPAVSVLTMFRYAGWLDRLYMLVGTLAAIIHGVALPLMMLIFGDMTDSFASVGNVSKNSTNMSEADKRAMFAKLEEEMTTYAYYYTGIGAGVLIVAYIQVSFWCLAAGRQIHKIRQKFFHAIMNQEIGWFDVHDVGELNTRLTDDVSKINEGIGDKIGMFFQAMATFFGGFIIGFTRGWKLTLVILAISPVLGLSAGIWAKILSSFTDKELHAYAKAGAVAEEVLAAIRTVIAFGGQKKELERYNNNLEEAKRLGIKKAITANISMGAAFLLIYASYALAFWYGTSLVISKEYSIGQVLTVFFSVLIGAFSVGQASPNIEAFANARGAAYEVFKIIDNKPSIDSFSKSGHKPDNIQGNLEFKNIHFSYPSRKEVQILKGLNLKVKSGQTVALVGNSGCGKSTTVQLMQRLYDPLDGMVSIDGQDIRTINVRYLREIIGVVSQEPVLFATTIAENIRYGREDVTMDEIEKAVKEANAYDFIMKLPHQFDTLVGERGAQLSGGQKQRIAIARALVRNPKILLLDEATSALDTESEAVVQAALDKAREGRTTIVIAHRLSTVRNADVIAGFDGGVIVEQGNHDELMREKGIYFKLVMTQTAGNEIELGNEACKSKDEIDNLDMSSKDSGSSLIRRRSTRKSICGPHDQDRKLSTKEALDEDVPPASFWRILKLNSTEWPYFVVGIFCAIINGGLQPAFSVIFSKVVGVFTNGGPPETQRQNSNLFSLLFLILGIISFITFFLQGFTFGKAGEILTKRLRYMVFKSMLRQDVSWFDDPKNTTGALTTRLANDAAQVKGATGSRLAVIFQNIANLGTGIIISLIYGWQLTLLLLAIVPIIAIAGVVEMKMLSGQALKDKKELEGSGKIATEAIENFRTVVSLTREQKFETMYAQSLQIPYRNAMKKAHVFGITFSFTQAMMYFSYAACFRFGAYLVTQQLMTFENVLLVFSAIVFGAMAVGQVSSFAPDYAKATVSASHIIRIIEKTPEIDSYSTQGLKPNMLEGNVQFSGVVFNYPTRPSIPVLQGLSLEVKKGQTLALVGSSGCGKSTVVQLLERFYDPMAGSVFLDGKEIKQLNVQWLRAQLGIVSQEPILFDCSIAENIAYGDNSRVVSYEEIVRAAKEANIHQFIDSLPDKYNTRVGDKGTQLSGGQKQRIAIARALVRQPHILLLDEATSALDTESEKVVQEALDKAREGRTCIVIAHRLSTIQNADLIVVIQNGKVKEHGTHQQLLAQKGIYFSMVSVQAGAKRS

ATP-dependent translocase ABCB1 (Homo sapiens, UniProt P08183), sequence (P08183 whole entry): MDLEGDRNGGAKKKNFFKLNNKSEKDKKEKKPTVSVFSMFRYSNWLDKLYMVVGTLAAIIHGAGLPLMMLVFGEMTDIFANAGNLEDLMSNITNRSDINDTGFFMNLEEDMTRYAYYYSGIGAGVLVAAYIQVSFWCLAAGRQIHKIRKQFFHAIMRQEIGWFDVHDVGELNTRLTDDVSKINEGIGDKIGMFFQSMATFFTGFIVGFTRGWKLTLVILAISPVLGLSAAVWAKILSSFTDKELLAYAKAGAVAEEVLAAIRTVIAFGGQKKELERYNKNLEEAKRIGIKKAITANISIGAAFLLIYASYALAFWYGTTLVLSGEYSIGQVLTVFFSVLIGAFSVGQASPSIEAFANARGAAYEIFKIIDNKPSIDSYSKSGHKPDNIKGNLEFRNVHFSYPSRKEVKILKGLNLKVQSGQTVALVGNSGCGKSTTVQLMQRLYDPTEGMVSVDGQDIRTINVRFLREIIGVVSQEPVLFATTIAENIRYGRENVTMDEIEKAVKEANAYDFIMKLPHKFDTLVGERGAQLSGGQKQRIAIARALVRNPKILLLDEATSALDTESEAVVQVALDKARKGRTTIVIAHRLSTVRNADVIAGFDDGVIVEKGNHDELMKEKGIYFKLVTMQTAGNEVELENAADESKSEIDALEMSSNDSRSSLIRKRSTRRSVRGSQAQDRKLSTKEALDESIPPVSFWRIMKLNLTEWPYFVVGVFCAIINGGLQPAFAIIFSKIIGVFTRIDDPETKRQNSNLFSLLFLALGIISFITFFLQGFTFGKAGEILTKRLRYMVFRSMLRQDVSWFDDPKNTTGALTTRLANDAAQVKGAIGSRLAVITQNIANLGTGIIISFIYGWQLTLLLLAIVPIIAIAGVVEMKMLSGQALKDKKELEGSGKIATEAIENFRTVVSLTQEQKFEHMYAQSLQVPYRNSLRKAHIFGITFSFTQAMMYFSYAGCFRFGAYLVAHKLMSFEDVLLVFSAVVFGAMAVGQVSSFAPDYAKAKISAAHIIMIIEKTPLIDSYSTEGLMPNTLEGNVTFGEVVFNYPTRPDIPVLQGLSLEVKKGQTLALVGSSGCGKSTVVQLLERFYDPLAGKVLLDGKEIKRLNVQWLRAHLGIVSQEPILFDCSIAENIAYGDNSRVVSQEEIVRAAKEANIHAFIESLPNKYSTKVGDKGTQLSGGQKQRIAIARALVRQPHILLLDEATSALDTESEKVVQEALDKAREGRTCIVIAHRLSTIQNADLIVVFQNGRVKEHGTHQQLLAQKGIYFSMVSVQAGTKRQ

Take `Cc1c(F)c(N2CCNC(C)C2)cc2c1c(=O)c(C(=O)O)cn2C1CC1` (stereo not drawn) [GREPAFLOXACIN]: the Activity result in data set [1] and in data set [2] was “substrate [+]” throughout.

Take `C[C@@H]1CN(c2c(F)c(N)c3c(=O)c(C(=O)O)cn(C4CC4)c3c2F)C[C@H](C)N1` [SPARFLOXACIN]: in data set [1], the Activity result was “substrate [+]”.

The values above are taken from ChEMBL document CHEMBL2074062, “Active intestinal secretion of new quinolone antimicrobials and the partial contribution of P-glycoprotein” (J Pharm Pharmacol, 2001).
